Measured values: patent US11779014B2, “Adjuvants” (SYNGENTA PARTICIPATIONS AG, priority 2017, dated 2023)
Values belong to the molecule of their own block, whether it stands above or below them.

What was measured:
[1] = Cloud point measurement (absorbance at 500 nm as a function of temperature); assay type: physicochemical
Method: Consistent with the standard method for measuring the cloud point of surfactants, the cloud point of each of the above blends was measured at a total concentration of 1% w/w in water using a Perkin Elmer spectrophotometer fitted with a PTP6 temperature controller. The absorbance of the solution at 500 nm wavelength was determined as a function of temperature. The cloud point was recorded as the onset of a rapid increase in absorbance as the solution began to cloud.
Cloud point—the measurements relied on the same method as for ‘Example 1’
Cloud points—were measured using the same method as in Example 1.
(§1) This example provides de-gelling, cloud point and adjuvancy data for dodecyl 23 ethoxylate with n-hexyl cap and hexadecyl 20 ethoxylate with n-hexyl cap Cloud points were measured as described in example 1 for 1% aqueous solutions of the capped and uncapped surfactants both individually and as blends (see Table 30). Degelling temperatures were also measured as outlined in example 1 for 25, 30, 35 and 40% aqueous solutions of the capped and uncapped surfactants both individually and as blends (see Table 31).
(§2) This example provides de-gelling, cloud point and adjuvancy data for oleyl 20 ethoxylate with n-butyl, n-pentyl or benzyl ether caps end capped oleyl 20 ethoxylate. Cloud points were measured as described in example 1 for 1% aqueous solutions of the capped and uncapped surfactants both individually and as blends. Degelling temperatures were also measured as outlined in example 1 for 25, 30, 35 and 40% aqueous solutions o of the capped and uncapped surfactants both individually and as blends.

[2] = tested on: Chenopodium album (CHEAL); assay: Glasshouse adjuvancy test for nicosulfuron on CHEAL; assay type: in vivo
Method: (§3) The biological efficacies of blends of an oleyl 20 ethoxylate uncapped surfactant with an oleyl 20 ethoxylate surfactant with an n-hexyl ether cap as adjuvants for the herbicide nicosulfuron were tested in a glasshouse against three weed species sown into standard soil in pots and cultivated under controlled conditions in a glasshouse (24/18° C. day/night; 16 hours light; 65% humidity). Nicosulfuron was added to the spray tank as a standard WG (water dispersible granule) formulation. The plants were sprayed with nicosulfuron at rates of 15 or 60 grams of pesticide per hectare using a laboratory track sprayer which delivered the aqueous spray composition at a rate of 200 litres per hectare, using a flat fan nozzle (Teejet 11002VS) at 2 bar. The adjuvants were added to the spray solution at a total rate of 0.1 or 0.2% w/v in all cases and at extra lower rates for the oleyl 20EO alone and its 1:1 blend with the oleyl 20EO n-hexyl ether to show the dose response to these adjuvants. All spray solutions also contained 10% w/w of iso-propanol. The weed species and their BBCH growth stage at spraying were Chenopodium album (CHEAL; growth stage 15), Digitaria sanguinalis (DIGSA; growth stage 14), and Commelina benghalensis (COMBE; growth stage 14). Each spray test was replicated three times. The test plants were then grown in a glasshouse under controlled conditions (24/18° C. day/night; 16 hours light; 65% humidity) and watered twice a day. The efficacy of the herbicide was assessed visually and expressed as a percentage of the leaf area killed. Samples were assessed at a time period of 21 days following application. The following tables (3-8) show the effect of blends of the two surfactants at a total concentration of 0.2 and 0.1%. In each case the blends were 1:0, 3:1, 1:1, 1:3 and 0:1 w/w of oleyl 20EO:oleyl 20 EO n-hexyl ether.
The biological efficacies of blends of oleyl 20 ethoxylate and oleyl 20EO ethoxylate with a benzoate cap as adjuvants for the herbicide nicosulfuron were tested in a glasshouse using the same method as for ‘Example 1’ but against just two weed species and with just 0.2% w/v total adjuvant concentration. The weed species and their BBCH growth stage at spraying HI were Chenopodium album (CHEAL; growth stage 13-15) and Digitaria sanguinalis (DIGSA; growth stage 14-22).
The biological efficacies of 1:1 blends of an oleyl 20 ethoxylate uncapped surfactant with oleyl 20E ethoxylate surfactants with hexanoyl, n-octanoyl or 2-ethyl hexanoyl ester caps as adjuvants for the herbicide nicosulfuron were tested in a glasshouse using the same method as for ‘Example 1’ but against just one weed species and at 0.2% w/v tital adjuvant concentration. The weed species and its BBCH growth stage at spraying was Chenopodium album (CHEAL; growth stage 15).

[3] = De-gelling temperature of aqueous surfactant blends by low shear rheology (Bohlin Gemini rheometer, storage modulus vs temperature); assay type: physicochemical; conditions: for Degelling temperature: Table 18
Method: The temperatures at which blends of capped and uncapped surfactants de-gel were determined by standard low shear rheology with a Bohlin™ Gemini rheometer. The storage modulus (G′) at 1 Hz was determined at a strain of 0.001-0.002 in a standard C14 cup and bob geometry over a temperature range of 5-70° C., the exact range depending on the de-gelling point of the sample. Plots of storage modulus versus temperature were constructed and the de-gelling temperature was taken to be the point at which the modulus begins to fall rapidly from its high value in the gelled state (typically ca. 10^5 Pa) down to the final value in the de-gelled state (less than 10 Pa). Blends of surfactants were prepared at from 25 to 40% w/w total surfactant concentration in water. Samples were left in an oven at 55° C. for several days to ensure that the mixtures were homogeneous. Samples were placed in the C14 cup and the samples were de-gelled by raising the temperature in the rheometer, the bob was then inserted and the sample was then cooled at 1° C./min, whilst the storage modulus was regularly recorded during the cooling. Once the final temperature had been reached (i.e. when the sample had gelled), the temperature was then increased again and the modulus again recorded. The de-gelling temperature was determined from the increasing temperature cycle.
Degelling temperatures—the measurements relied on the same method as for ‘Example 1’ but just at 30% w/w total surfactant concentration.
De-gelling temperatures were measured using the same method as in Example 1.
as §1, §2

[4] = tested on: Commelina benghalensis (COMBE); assay: Glasshouse adjuvancy test for nicosulfuron on COMBE; assay type: in vivo; conditions: 21 DAA
Method: as §3

[5] = total concentration 1% w/w in water, Table 2
[6] = nicosulfuron 15 g ai/ha, 0.1% total surfactant concentration, 21 days, Table 6
[7] = nicosulfuron 15 g ai/ha, 0.2% total surfactant concentration, 21 days, Table 5
[8] = nicosulfuron 60 g ai/ha, 0.1% total surfactant concentration, 21 days, Table 6
[9] = nicosulfuron 60 g ai/ha, 0.2% total surfactant concentration, 21 days, Table 5
[10] = total surfactant concentration 25% w/w in water, Table 1
[11] = total surfactant concentration 30% w/w in water, Table 1
[12] = total surfactant concentration 35% w/w in water, Table 1
[13] = total surfactant concentration 40% w/w in water, Table 1
[14] = nicosulfuron 15 g ai/ha, 0.1% surfactant total concentration
[15] = nicosulfuron 15 g ai/ha, 0.2% surfactant total concentration
[16] = nicosulfuron 60 g ai/ha, 0.1% surfactant total concentration
[17] = nicosulfuron 60 g ai/ha, 0.2% surfactant total concentration

- Cloud point ([1]; 1% aqueous solutions, Table 34): >90.0 °C
- Cloud point ([1]; 1%, Table 15): >95.0 °C
- Cloud point ([1]; 1%, Table 20): >95.0 °C
- Cloud point [1, 5]: >90 °C
- De-gelling temperature ([3]; 30% w/w total surfactant concentration, Table 15): 42.4 °C
- De-gelling temperature ([3]; 40% w/w, Table 19): 66.3 °C
- De-gelling temperature [3, 10]: 26.9 °C
- Degelling temperature ([3]; total surfactant concentration 25% w/w): 26.9 °C
- De-gelling temperature ([3]; total surfactant concentration 25% w/w, Table 35): 23.3 °C
- De-gelling temperature [3, 11]: 45.2 °C
- Degelling temperature ([3]; total surfactant concentration 30% w/w): 45.2 °C
- De-gelling temperature ([3]; total surfactant concentration 30% w/w, Table 35): 40.9 °C
- De-gelling temperature [3, 12]: 51.3 °C
- Degelling temperature ([3]; total surfactant concentration 35% w/w): 51.3 °C
- De-gelling temperature ([3]; total surfactant concentration 35% w/w, Table 35): 56.7 °C
- De-gelling temperature [3, 13]: 70.6 °C
- Degelling temperature ([3]; total surfactant concentration 40% w/w): 70.6 °C
- De-gelling temperature ([3]; total surfactant concentration 40% w/w, Table 35): 63.1 °C
Molecule: CCCCCCCC/C=C\CCCCCCCCOCCOCCOCCOCCOCCOCCOCCOCCOCCOCCOCCOCCOCCOCCOCCOCCOCCOCCOCCOCCO [Oleyl 20EO, oleyl 20 ethoxylate]
- Mean control ([2]; dose response, nicosulfuron 15 g ai/ha, adjuvant 0.05%): 81.7%
- Mean control ([2]; dose response, nicosulfuron 15 g ai/ha, adjuvant 0.1%): 86.7%
- Mean control ([2]; dose response, nicosulfuron 15 g ai/ha, adjuvant 0.2%): 83.3%
- Mean control ([2]; dose response, nicosulfuron 60 g ai/ha, adjuvant 0.05%): 83.3%
- Mean control ([2]; dose response, nicosulfuron 60 g ai/ha, adjuvant 0.1%): 80.0%
- Mean control ([2]; dose response, nicosulfuron 60 g ai/ha, adjuvant 0.2%): 80.0%
- Mean control [2, 6]: 86.7%
- Mean control [2, 7]: 83.3%
- Mean control ([2]; nicosulfuron 15 g ai/ha, 0.2% w/v total adjuvant, Example 3, growth stage 13-15): 66.7%
- Mean control ([2]; nicosulfuron 15 g ai/ha, 0.2% w/v total adjuvant, Example 4, growth stage 15): 76.8%
- Mean control [2, 8]: 80%
- Mean control [2, 9]: 80%
- Mean control ([2]; nicosulfuron 60 g ai/ha, 0.2% w/v total adjuvant, Example 3, growth stage 13-15): 68.3%
- Mean control ([2]; nicosulfuron 60 g ai/ha, 0.2% w/v total adjuvant, Example 4, growth stage 15): 71.7%
- Mean control [4, 14]: 63.3%
- Mean control [4, 15]: 80%
- Mean control [4, 16]: 63.3%
- Mean control [4, 17]: 72.5%

- Cloud point [1, 5]: 52.0 °C
- De-gelling temperature [3, 10]: 5.0 °C
- De-gelling temperature [3, 11]: 5.0 °C
- De-gelling temperature [3, 12]: 5.0 °C
- De-gelling temperature [3, 13]: 16.7 °C
Molecule: Oleyl 20EO n-hexyl ether
- Mean control [2, 6]: 85%
- Mean control [2, 7]: 81.7%
- Mean control [2, 8]: 85%
- Mean control [2, 9]: 88.3%
- Mean control [4, 14]: 70%
- Mean control [4, 15]: 80%
- Mean control [4, 16]: 73.3%
- Mean control [4, 17]: 72.5%
